Experimental data as given in paper PMC6445228, “Synthesis and biological evaluation of anti-Toxoplasma gondii activity of a novel scaffold of thiazolidinone derivatives” (Journal of Enzyme Inhibition and Medicinal Chemistry, 2017).
Read-outs that look alike come from different tables or passages of the source.

Legend:
[1] = test system: T. gondii RH-2 F tachyzoites; test: Five-day growth inhibition assay (tachyzoite growth, colorimetric); format: cell-based, Toxoplasma gondii; details: 120 h, T. gondii RH-2 F in HFF, three experiments; for IC50: read-out: IC50, median inhibitory concentration, a measure of tachyzoite inhibition; for IC90: read-out: IC90, concentration at which 90% of the tachyzoite growth is inhibited
Experimental: (§1) Using published methods[8]^,[19], all of the prepared N-substituted thiazolidinones derivatives were evaluated in vitro for (i) host cell cytotoxicity as well as for the ability to inhibit tachyzoite growth over a period of 5 days (Table 1), for (ii) the ability to inhibit tachyzoite invasion of host cells (Figure 1), and for (iii) the ability to inhibit intracellular tachyzoite replication (Figure 2).
(§2) Compounds were tested for the ability to inhibit in vitro tachyzoite (T. gondii RH-2 F (50839); ATCC, VA) and human foreskin fibroblast (HFF; ATCC) growth for 120 h using a published colorimetric assay[8]^,[19]. Stock solutions of all compounds were 10 mM in DMSO. Serial 0.5 log10 dilutions (320–0.032 μM) of each compound were tested. Data from three separate experiments were analysed and the IC50, IC90, and TD50 calculated using Calcusyn software (Biosoft, Cambridge, UK). The therapeutic index (TI), a measure of specific anti-T. gondii activity, was calculated with the formula shown under Table 1.
We explored the chemical space and the influence on the biological activity of different groups (substituted aromatic and bicyclic rings) at the lactam NH of the core nucleus. […] In the five-day growth inhibition assay, compounds were added only once, just before addition of tachyzoites, and thus were present for multiple cycles, up to 20, of parasite replication.

[2] = test system: human foreskin fibroblast (HFF); test: Five-day growth inhibition assay, host cell cytotoxicity; details: 120 h
Experimental: as §1, §2

[3] = HFF cells, top concentration 320 μM

Compound	IC50 ([1]; Toxoplasma gondii) [µM]	IC90 ([1]; Toxoplasma gondii) [µM]	TD50, median toxicity dose, a measure of cytotoxicity against host cells ([2]; human) [µM]	melting point [°C]	IC50 [1] [µM]	IC90 [1] [µM]	TD50, median toxicity dose, a measure of cytotoxicity against host cells [2, 3] [µM]
CCCCC(CC)=NN=C1SCC(=O)N1Cc1cccc2ccccc12 [Compound 28, 2-((Heptan-3-ylidene)hydrazono)-3-(naphthalen-1-ylmethyl)thiazolidin-4-one]	37	138	271				
CCCCC(CC)=NN=C1SCC(=O)N1Cc1ccccc1[N+](=O)[O-] [Compound 1, 2-((Heptan-3-ylidene)hydrazono)-3-(2-nitrobenzyl)thiazolidin-4-one]	20	111	236	67 to 69			
O=C1C(O)=C([C@H]2CC[C@H](c3ccc(Cl)cc3)CC2)C(=O)c2ccccc21 [Atovaquone, reference compound]	0.2	2	24				
CCCCC(CC)=NN=C1SCC(=O)N1Cc1ccccc1F [Compound 10, 3-(2-Fluorobenzyl)-2-((heptan-3-ylidene)hydrazono)thiazolidin-4-one]	24	104	90				
CC(=NN=C1SCC(=O)N1Cc1cccc(Cl)c1)c1cccs1 [Compound 23, 3-(3-Chlorobenzyl)-2-((1-(thiophen-2-yl)ethylidene)hydrazono)thiazolidin-4-one]	51	256	147	129 to 131			
CC(=NN=C1SCC(=O)N1Cc1ccc(Cl)cc1)c1cccs1 [Compound 26, 3-(4-Chlorobenzyl)-2-((1-(thiophen-2-yl)ethylidene)hydrazono)thiazolidin-4-one]	81	211	≥320	146 to 151			
CCCCC(CC)=NN=C1SCC(=O)N1Cc1cccc([N+](=O)[O-])c1 [Compound 4, 2-((Heptan-3-ylidene)hydrazono)-3–(3-nitrobenzyl)thiazolidin-4-one]	44	138	68				
CCCCC(CC)=NN=C1SCC(=O)N1Cc1ccc([N+](=O)[O-])cc1 [Compound 7, 2-((Heptan-3-ylidene)hydrazono)-3-(4-nitrobenzyl)thiazolidin-4-one]	32	128	98				
CCCCC(CC)=NN=C1SCC(=O)N1Cc1ccc(Cl)cc1 [Compound 25, 3-(4-Chlorobenzyl)-2-((heptan-3-ylidene)hydrazono)thiazolidin-4-one]	51	131	244				
CC(=NN=C1SCC(=O)N1Cc1cccc([N+](=O)[O-])c1)c1cccs1 [Compound 5, 3-(3-Nitrobenzyl)-2-((1-(thiophen-2-yl)ethylidene)hydrazono)thiazolidin-4-one]	52	171	≥320	165 to 170			
CC(=NN=C1SCC(=O)N1Cc1ccccc1F)c1cccs1 [Compound 11, 3-(2-Fluorobenzyl)-2-((1-(thiophen-2-yl)ethylidene)hydrazono)thiazolidin-4-one]	25	103	82	80 to 85			
CC(=NN=C1SCC(=O)N1Cc1ccc(F)cc1)c1cccs1 [Compound 17, 3-(4-Fluorobenzyl)-2-((1-(thiophen-2-yl)ethylidene)hydrazono)thiazolidin-4-one]	72	312	≥320	118 to 123			
CCCCC(CC)=NN=C1SCC(=O)N1Cc1cccc(Cl)c1 [Compound 22, 3-(3-Chlorobenzyl)-2-((heptan-3-ylidene)hydrazono)thiazolidin-4-one]	19	106	165				
CC(=NN=C1SCC(=O)N1Cc1cccc(Cl)c1)c1ccc[cH-]1.[Fe+2].c1cc[cH-]c1 [Compound 24, 3-(3-Chlorobenzyl)-2-((1-(ferrocen-2-yl)ethylidene)hydrazono)thiazolidin-4-one]					8	17	≥320
CCCCC(CC)=NN=C1SCC(=O)N1Cc1ccccc1Cl [Compound 19, 3-(2-Chlorobenzyl)-2-((heptan-3-ylidene)hydrazono)thiazolidin-4-one]	39	183	95				
CCCCC(CC)=NN=C1SCC(=O)N1CN1C(=O)c2ccccc2C1=O [Compound 31, 2-((2-((Heptan-3-ylidene)hydrazono)-4-oxothiazolidin-3-yl)methyl)isoindoline-1,3-dione]	88	402	≥320				
CC(=NN=C1SCC(=O)N1Cc1cccc(F)c1)c1cccs1 [Compound 14, 3-(3-Fluorobenzyl)-2-((1-(thiophen-2-yl)ethylidene)hydrazono)thiazolidin-4-one]	45	147	178	84 to 85			
CC(=NN=C1SCC(=O)N1Cc1ccccc1Cl)c1ccc[cH-]1.[Fe+2].c1cc[cH-]c1 [Compound 21, 3-(2-Chlorobenzyl)-2-((1-(ferrocen-2-yl)ethylidene)hydrazono)thiazolidin-4-one]					9	24	≥320
CC(=NN=C1SCC(=O)N1Cc1cccc([N+](=O)[O-])c1)c1ccc[cH-]1.[Fe+2].c1cc[cH-]c1 [Compound 6, 3-(3-Nitrobenzyl)-2-((1-(ferrocen-2-yl)ethylidene)hydrazono)thiazolidin-4-one]					24	152	≥320
CCCCC(CC)=NN=C1SCC(=O)N1Cc1cccc(F)c1 [Compound 13, 3-(3-Fluorobenzyl)-2-((heptan-3-ylidene)hydrazono)thiazolidin-4-one]	18	99	246	30 to 31			
CC(=NN=C1SCC(=O)N1CN1C(=O)c2ccccc2C1=O)c1ccc[cH-]1.[Fe+2].c1cc[cH-]c1 [Compound 33, 2-((4-Oxo-2-((1-(ferrocen-2-yl)ethylidene)hydrazono)thiazolidin-3-yl)methyl)isoindoline-1,3-dione]					82	286	138
CC(=NN=C1SCC(=O)N1Cc1ccccc1Cl)c1cccs1 [Compound 20, 3-(2-Chlorobenzyl)-2-((1-(thiophen-2-yl)ethylidene)hydrazono)thiazolidin-4-one]	34	112	84	100 to 102			
CC(=NN=C1SCC(=O)N1Cc1ccccc1[N+](=O)[O-])c1cccs1 [Compound 2, 3-(2-Nitrobenzyl)-2-((1-(thiophen-2-yl)ethylidene)hydrazono)thiazolidin-4-one]	37	155	280	150 to 151			
CCCCC(CC)=NN=C1SCC(=O)N1Cc1ccc(F)cc1 [Compound 16, 3–(4-Fluorobenzyl)-2-((heptan-3-ylidene)hydrazono)thiazolidin-4-one]	29	107	192				
